Where a name gives a salt, the structure may show the parent alone.
Tests used:
Assay type in all cases: in vivo
[1] = tested on: coughs induced by citric acid spray in awake white rats; test: Antitussive activity: change in number of citric acid-induced coughs after oral application; conditions: 50 mgm/kg oral, compared to control group
[2] = tested on: stomach ulcers in female rats; test: Anti-ulcerogenic activity: acetic acid-induced stomach ulcers; conditions: three weeks
Protocol: The standard pharmacological test method of […] et al, Jap. J. Pharmac. 19, 418 (1969), was used. The abdominal cavity of female rats having a body weight of 220 to 350 gm under ether anesthesia was opened, and the stomach was exposed. […] The controls received only pulverized rat food. After three weeks, the animals were sacrificed, their stomachs were excised, and the size of the ulcer was determined by measuring its length and width.

[3] = Acute toxicity after oral application, 72 hours observation; conditions: mouse, in vivo, po
Protocol: (§1) The acute toxicity was determined on groups of 5 white mice after oral application of a dose ranging between 500 mgm/kg and 5000 mgm/kg per animal (time of observation: 72 hours).

white mice = test: as above; conditions: white mice, 72 hours
Protocol: as §1

[4] = tested on: secretion in anesthetized rabbits or guinea pigs; test: Expectorant effect: secretolytic activity, increase of secretion within 2 hours after oral application; conditions: 8 mgm/kg oral
Protocol: The increase of secretion within 2 hours was calculated before and after application of the substance see Perry and Boyd in Pharmakol. exp. Therap. 73, 65 (1941)!.

cats = test: Circulatory effect in cats under chloralose-urethane narcosis after intravenous application; conditions: 3 animals per dose
Protocol: The circulatory effect in cats was determined under chloralose-urethane narcosis after intravenous application of the test compound (3 animals per dose).

[5] = white mice, 72 hours observation

Cl.Oc1c(Br)cc(CN[C@H]2CCC[C@@H](O)C2)cc1Br (relative stereo) [C, N-(cis-3'-hydroxy-cyclohexyl)-3,5-dibromo-4-hydroxy-benzylamine hydrochloride]
Average change in the number of coughs, in per cent, 30 minutes after oral application of 50 mgm/kg [1]: -35%
% change in ulcer size versus controls ([2]; 50 mgm/kg p.o. in daily food): -11%
% change in ulcer size versus controls ([2]; 100 mgm/kg p.o. in daily food): -29%
LD50 at 72 h [3, 5]: > 1000 mg/kg
animals dead (white mice; 1000 mgm/kg p.o.): 0 of 5

CC(CO)(CO)NCc1cc(Cl)c(O)c(Cl)c1 [H, N-(dihydroxy-tert.butyl)-3,5-dichloro-4-hydroxy-benzylamine hydrochloride]
change in vivo at 8 mg/kg [4]: 88%

Oc1c(Br)cc(Br)cc1CN[C@H]1CC[C@H](O)CC1 [F, N-(trans-4'-hydroxy-cyclohexyl)-3,5-dibromo-2-hydroxy-benzylamine]
change in vivo at 8 mg/kg [4]: 70%
% change in ulcer size versus controls ([2]; 50 mgm/kg p.o. in daily food): -59%
% change in ulcer size versus controls ([2]; 100 mgm/kg p.o. in daily food): -78%
LD50 at 72 h [3, 5]: > 5000 mg/kg
animals dead (white mice; 5000 mgm/kg p.o.): 0 of 5

CCN(Cc1cc(Br)cc(Br)c1O)C1CCCCC1 [Compound A, N-ethyl-N-cyclohexyl-(3,5-dibromo-2-hydroxy)-benzylamine hydrochloride]
Average change in the number of coughs, in per cent, 30 minutes after oral application of 50 mgm/kg [1]: -38%
change in vivo at 8 mg/kg [4]: 81%
Circulatory effect in cats (cats; 4 mgm/kg): no change
% change in ulcer size versus controls ([2]; 50 mgm/kg p.o. in daily food): -39%
% change in ulcer size versus controls ([2]; 100 mgm/kg p.o. in daily food): -54%
LD50 at 72 h [3]: > 1000 mg/kg
animals dead (white mice; 1000 mgm/kg p.o.): 0 of 5

CN(Cc1cc(Cl)c(O)c(Br)c1)C1CCCCC1.Cl [E, n-methyl-N-cyclohexyl-3-bromo-5-chloro-4-hydroxy-benzylamine hydrochloride]
change in vivo at 8 mg/kg [4]: 65%
LD50 at 72 h [3, 5]: > 500 mg/kg
animals dead (white mice; 500 mgm/kg p.o.): 0 of 5

CCC(C)(C)NCc1cc(Br)cc(Br)c1O.Cl [Compound I, N-tert.pentyl-3,5-dibromo-2-hydroxy-benzylamine hydrochloride]
change in vivo at 8 mg/kg [4]: 80%
LD50 at 72 h [3, 5]: > 5000 mg/kg
animals dead (white mice; 5000 mgm/kg p.o.): 0 of 5

CN(Cc1cc(Br)cc(Br)c1O)C1CCCCC1 [J, N-methyl-N-cyclohexyl-(3,5-dibromo-2-hydroxy)-benzylamine hydrochloride]
% change in ulcer size versus controls ([2]; 50 mgm/kg p.o. in daily food): -73%
% change in ulcer size versus controls ([2]; 100 mgm/kg p.o. in daily food): -82%
LD50 at 72 h [3, 5]: > 5000 mg/kg
animals dead (white mice; 5000 mgm/kg p.o.): 1 of 5

Oc1c(Br)cccc1CN[C@H]1CC[C@H](O)CC1 [D, N-(trans-4'-hydroxy-cyclohexyl)-3-bromo-2-hydroxy-benzylamine]
change in vivo at 8 mg/kg [4]: 66%
LD50 at 72 h [3, 5]: > 500 mg/kg
animals dead (white mice; 500 mgm/kg p.o.): 0 of 5

CCN(Cc1cc(Br)c(O)c(Br)c1)C1CCCCC1 [B, N-ethyl-N-cyclohexyl-3,5-dibromo-4-hydroxy-benzylamine]
Average change in the number of coughs, in per cent, 30 minutes after oral application of 50 mgm/kg [1]: -34%
change in vivo at 8 mg/kg [4]: 87%
Circulatory effect in cats (cats; 8 mgm/kg): no change
LD50 at 72 h [3, 5]: > 1000 mg/kg
animals dead (white mice; 1000 mgm/kg p.o.): 0 of 5

CC(CO)(CO)NCc1cc(Br)cc(Br)c1O [G, N-(dihydroxy-tert.butyl)-3,5-dibromo-2-hydroxy-benzylamine hydrochloride]
change in vivo at 8 mg/kg [4]: 88%
LD50 at 72 h [3, 5]: > 5000 mg/kg
animals dead (white mice; 5000 mgm/kg p.o.): 0 of 5

Reference: patent US4073942A, “Halo-substituted hydroxybenzyl-amines as secretolytic agents” (Boehringer Ingelheim GmbH, priority 1972, dated 1978)
